≈ marks a conversion by molar mass, not a printed value. Where “and” joins values, the source holds several entries; their conditions need not be identical. Identical values can stand only once. Like-named read-outs stand apart in the source and are kept apart here.
Assays:
[1] = Lipophilicity log k by RP-HPLC; conditions: for log k: RP-HPLC capacity factor, C18, MeOH 70%/H2O 30%, 30 °C; for π: π = log k(substituted) – log k(unsubstituted)
Text: Experimental lipophilicity parameter log k was ascertained using an Agilent Technologies 1200 SL HPLC system with a SL G1315C Diode-Array Detector, ZORBAX XDB-C18 5 μm, 4 × 4 mm, Part No. 7995118-504 chromatographic pre-column and ZORBAX Eclipse XDB-C18 5 μm, 4.6 × 250 mm, Part No. 7995118-585 column (Agilent Technologies Inc., Colorado Springs, CO, USA). The separation process was controlled by Agilent ChemStation, version B.04.02 extended by spectral module (Agilent Technologies Inc.). A solution of MeOH (HPLC grade, 70%) and H2O (HPLC-Milli-Q Grade, 30%) was used as mobile phase. The total flow of the column was 1.0 mL/min, injection 20 μL, column temperature 30 °C. Detection wavelength λ= 210 nm and monitor wavelength λ= 270 nm were chosen for this measurement. The KI methanol solution was used for the dead time (TD) determination. Retention times (TR) of synthesized compounds were measured in minutes. The capacity factors k were calculated using Microsoft Excel according to formula k = (TR − TD)/TD, where TR is the retention time of the solute and TD denotes the dead time obtained via an unretained analyte. Log k, calculated from the capacity factor k, is used as the lipophilicity index converted to log P scale.

[2] = tested on: photosynthetic electron transport (PET) in spinach chloroplasts; assay: Inhibition of photosynthetic electron transport (PET) in spinach chloroplasts, DCPIP photoreduction; type: biochemical, Spinacia oleracea L.; conditions: for IC50 / IC50 PET inhibition in spinach chloroplasts: chlorophyll 30 mg/L, phosphate buffer pH 7.2
Experimental: Chloroplasts were prepared from spinach (Spinacia oleracea L.) according to Masarovicova and Kralova. The inhibition of photosynthetic electron transport (PET) in spinach chloroplasts was determined spectrophotometrically (Genesys 6, Thermo Scientific, Madison, WI, USA) using an artificial electron acceptor 2,6-dichlorophenol-indophenol (DCPIP) according to Kralova et al. and the rate of photosynthetic electron transport (PET) was monitored as a photo-reduction of DCPIP. The measurements were carried out in a phosphate buffer (0.02 mol/L, pH 7.2) containing sucrose (0.4 mol/L), MgCl2 (0.005 mol/L) and NaCl (0.015 mol/L). The chlorophyll content was 30 mg/L in these experiments and the samples were irradiated (~100 W/m^2) from a 10 cm distance with halogen lamp (250 W) using a 4 cm water filter to prevent warming of the samples (suspension temperature […]). The studied compounds were dissolved in DMSO due to their limited water solubility. […] The inhibitory efficiency of the studied compounds was expressed as the IC50 values, i.e., molar concentration of the compounds causing 50% decrease in the oxygen evolution relative to the untreated control.

[3] = tested on: M. tuberculosis H37Rv CNCTC My 331/88; assay: Antimycobacterial in vitro screening, microdilution broth panel method, Alamar Blue; type: cell-based, Mycobacterium tuberculosis; conditions: 37 °C; for MIC: Mycobacterium tuberculosis, H37RV, 336 h, pH 6, Sula's medium pH 6.0, 14 days; for MIC M.tuberculosis H37Rv: Sula's medium pH 6.0, 14 days
[4] = tested on: Trichophyton mentagrophytes 445; assay: Antifungal in vitro screening, microdilution broth method; type: cell-based; conditions: for activity against Trichophyton mentagrophytes: result in words; for MIC: Trichophyton mentagrophytes, 445, RPMI 1640, pH 7.0, 35 °C, read-out: MIC against Trichophyton mentagrophytes
Experimental: Antifungal evaluation was also accomplished with microdilution broth method. On the contrary, there was used RPMI 1640 broth with glutamine as medium and conditions were humid and dark atmosphere, pH 7.0 (buffered with 3-morpholinopropane-1-sulfonic acid) and 35 °C. Eight fungal strains were used (Candida albicans ATCC 44859, Candida tropicalis 156, Candida krusei E28, Candida glabrata 20/I, Trichosporon asahii 1188, Aspergillus fumigatus 231, Absidia corymbifera 272, Trichophyton mentagrophytes 445) together with 4 antimycotic standards amphotericin B, voriconazole, nystatin and fluconazole.

[5] = tested on: M. kansasii CNCTC My 235/80; assay: Antimycobacterial in vitro screening, non-tuberculosis strain M. kansasii; type: cell-based, Mycobacterium kansasii; conditions: result in words
M. avium CNCTC My 152/73 = assay: Antimycobacterial in vitro screening, non-tuberculosis strain M. avium; type: cell-based, Mycobacterium avium; conditions: result in words
[6] = tested on: photosynthetic electron transport (PET) in spinach chloroplasts; design: method as in earlier work; conditions: DCMU standard; read-out: IC50 PET inhibition in spinach chloroplasts (standard); cited from earlier work

Compound | log k [1] | π [1] | IC50 [2] [µM] | MIC [3] [µg/mL] | activity against Trichophyton mentagrophytes [4] | PET inhibitory activity relative to DCMU (times lower) ([2]; ratio of IC50 to standard DCMU) [times] | MIC [4] [µM] | activity against M. kansasii [5] | activity against M. avium 152 (M. avium CNCTC My 152/73) | IC50 PET inhibition in spinach chloroplasts [2] | MIC M.tuberculosis H37Rv [3] [µg/mL] | IC50 [6]
Cc1nc(C#N)c(C#N)nc1NCc1cccc([N+](=O)[O-])c1 [Compound 14, 5-Methyl-6-[(3-nitrobenzyl)amino]pyrazine-2,3-dicarbonitrile] | 0.1808 | −0.1186 | 487 | 12.5 (≈ 42.5 µM) |  |  |  |  |  |  |  | 
Cc1nc(C#N)c(C#N)nc1NCc1ccc(Cl)cc1 [Compound 15, 5-[(4-Chlorobenzyl)amino]-6-methylpyrazine-2,3-dicarbonitrile] | 0.5384 | 0.2390 | 86.5 | 12.5 (≈ 44.1 µM) | insignificant activity |  |  |  |  |  |  | 
Cc1nc(C#N)c(C#N)nc1NCc1ccc(Cl)c(Cl)c1 [Compound 3, 5-[(3,4-Dichlorobenzyl)amino]-6-methylpyrazine-2,3-dicarbonitrile] | 0.7538 | 0.4544 | 16.4 | 6.25 (≈ 19.6 µM) |  | 8.6 |  |  |  |  |  | 
Cc1nc(C#N)c(C#N)nc1NCc1ccccc1C(F)(F)F [Compound 12, 5-Methyl-6-{[2-(trifluoromethyl)benzyl]amino}pyrazine-2,3-dicarbonitrile] | 0.4865 | 0.1871 | 71.6 | 12.5 (≈ 39.4 µM) |  |  | 125 (≈ 39.7 µg/mL) | active | active |  |  | 
Cc1nc(C#N)c(C#N)nc1NCc1cccc(C(F)(F)F)c1 [Compound 2, 5-Methyl-6-{[3-(trifluoromethyl)benzyl]amino}pyrazine-2,3-dicarbonitrile] | 0.5369 | 0.2375 | 37.7 | 12.5 (≈ 39.4 µM) |  |  |  |  |  |  |  | 
Cc1nc(C#N)c(C#N)nc1NCc1cccc(Cl)c1 [Compound 8, 5-[(3-Chlorobenzyl)amino]-6-methylpyrazine-2,3-dicarbonitrile] | 0.5172 | 0.2178 | 57.4 | 12.5 (≈ 44.1 µM) |  |  |  |  |  |  |  | 
NNC(=O)c1ccncc1 [INH, isoniazid, reference compound] |  |  |  | 1.56 (≈ 11.4 µM) |  |  |  |  |  |  |  | 
Cc1ccc(CNc2nc(C#N)c(C#N)nc2C)cc1 [Compound 4, 5-Methyl-6-[(4-methylbenzyl)amino]pyrazine-2,3-dicarbonitrile] | 0.5157 | 0.2163 | 105 | 25 (≈ 94.9 µM) |  |  |  |  |  |  |  | 
Cc1nc(C#N)c(C#N)nc1NCc1ccccc1 [Compound 6, 5-(Benzylamino)-6-methylpyrazine-2,3-dicarbonitrile] | 0.2994 | 0 |  | 25 (≈ 100 µM) |  |  |  |  |  | inactive |  | 
NC(=O)c1cnccn1 [PZA, pyrazinamide, reference compound] |  |  |  | 12.5 (≈ 102 µM) |  |  |  |  |  |  |  | 
Cc1ccccc1CNc1nc(C#N)c(C#N)nc1C [Compound 1, 5-Methyl-6-[(2-methylbenzyl)amino]pyrazine-2,3-dicarbonitrile] | 0.4668 | 0.1674 | 114 | > 100 |  |  |  |  |  |  | >100 | 
Cc1nc(C#N)c(C#N)nc1NCc1ccc(N)cc1 [Compound 7, 5-[(4-Aminobenzyl)amino]-6-methylpyrazine-2,3-dicarbonitrile] | −0.2014 | −0.5008 |  | 25 (≈ 94.6 µM) | insignificant activity |  | 500 (≈ 132 µg/mL) |  |  | inactive |  | 
COc1ccc(CNc2nc(C#N)c(C#N)nc2C)cc1 [Compound 5, 5-[(4-Methoxybenzyl)amino]-6-methylpyrazine-2,3-dicarbonitrile] | 0.2820 | −0.0174 | 465 | > 100 |  |  |  |  |  |  | >100 | 
Cc1nc(C#N)c(C#N)nc1NCc1ccccc1Cl [Compound 9, 5-[(2-Chlorobenzyl)amino]-6-methylpyrazine-2,3-dicarbonitrile] | 0.4663 | 0.1669 | 79 | 6.25 (≈ 22 µM) |  |  |  |  |  |  |  | 
CN(C)C(=O)Nc1ccc(Cl)c(Cl)c1 [DCMU, 3-(3,4-dichlorophenyl)-1,1-dimethylurea] |  |  |  |  |  |  |  |  |  |  |  | ~1.9 µM and 1.9 µM
COc1ccc(CNc2nc(C#N)c(C#N)nc2C)c(OC)c1 [Compound 13, 5-[(2,4-Dimethoxybenzyl)amino]-6-methylpyrazine-2,3-dicarbonitrile] | 0.3699 | 0.0705 |  | 25 (≈ 80.8 µM) |  |  |  |  |  | inactive |  | 
Cc1nc(C#N)c(C#N)nc1NCc1ccccc1F [Compound 10, 5-[(2-Fluorobenzyl)amino]-6-methylpyrazine-2,3-dicarbonitrile] | 0.3042 | 0.0048 | 196 | 12.5 (≈ 46.8 µM) | insignificant activity |  | 500 (≈ 134 µg/mL) |  |  |  |  | 
Cc1nc(C#N)c(C#N)nc1NCc1ccc(C(F)(F)F)cc1 [Compound 11, 5-Methyl-6-{[4-(trifluoromethyl)benzyl]amino}pyrazine-2,3-dicarbonitrile] | 0.5626 | 0.2632 | 39.6 | 6.25 (≈ 19.7 µM) |  |  |  | active | active |  |  | 
